How the values were obtained:
[1] = system: lipopolysaccharides from E.coli; test: Dot blot binding of membrane-absorbed peptides to FITC-LPS from E.coli; details: 0-20 μg peptide on PVDF membrane, FIG. 1(a)
Method: (§1) Varying amounts of each peptide (ranging from 0-20 μg in 5 μg increments) were absorbed at a flow rate of approximately 0.15 ml/min. The membrane was blocked with 3% gelatin in TBS for 30 minutes at room temperature with gentle agitation and then was washed three times with TBS. Isolated, fluorescently-labeled lipopolysaccharides (FITC-LPS) from E.coli and Salmonella (Sigma Chemical Co.) were diluted in TBS to a final concentration of […] and were then bound to the membrane at room temperature with gentle agitation. The membrane was then washed three times with TBS and imaged on a Storm 860 (Molecular Dynamics, Sunnyvale, Calif.) in blue fluorescence mode.

[2] = system: lipopolysaccharides from Salmonella; test: Dot blot binding of membrane-absorbed peptides to FITC-LPS from Salmonella; details: 0-20 μg peptide on PVDF membrane, FIG. 1(b)
Method: as §1

E.coli 0157: H7 cells = test: Whole-cell binding of E.coli to immobilized Cys-Cecropin P1 (HRP antibody/TMB, absorbance 650 nm); design: species or system E coli serotype 0157: H7 (non-pathogenic); details: immobilized peptide, E.coli 0157: H7 whole cells, FIG. 2
Method: The binding of cecropin P1 to whole E.colicells was tested as follows: Preparation of whole bacterial cells—E coli serotype 0157: H7 (non-pathogenic) cells from a frozen stock were grown overnight in Luria Broth Base (Life Technologies, Inc., Paisely, Scotland). The bacterial cells were collected by centrifugation at 9000×g for 5 min. The cell pellet was washed 2 times with PBS pH 7.2 and collected each time by centrifugation. The washed cell pellet was resuspended in PBS pH 7.2 to a final volume equivalent to the original culture volume. Optical density of the cell suspension was detected on a Beckmann DU840 spectrophotometer at an absorbance of 540 nm. An absorbance of 4.5 is approximately 3.5×10^9 cfu/ml.
Peptide immobilization—Cys-Cecropin P1 (a modified cecropin p1 prepared by solid phase peptide synthesis wherein cysteine is added to the C-terminus of cecropin p1) was diluted into PBS pH 6.5, 1 mM EDTA, 0.0001 mM DTT (Sigma Chemical Co., St. Louis, Mo.) for immobilization onto sulfhydryl-bind strip wells (Corning Inc., Corning, N.Y.). […]
Detection and color development—E.coli 0157: H7 cells (prepared as above) were added to each well containing immobilized cys-cecropin p1 (described as above). […] Absorbance was then measured on a Thermomax microplate reader (Molecular Devices, Sunnyvale, Calif.) at 650 nm.

Row | Substance | binding to lipopolysaccharides from E. coli [1] | binding to lipopolysaccharides from Salmonella [2] | saturation of whole-cell binding occurs at a concentration of (E.coli 0157: H7 cells) [µg]
1 | Cecropin P1 (SWLSKTAKKLENSAKKRISEGIAIAIQGGPR; Cecropin-P1; UniProt P14661 14-44, looked up) | did bind | did bind | 45 to 50
2 | PGQ | did bind | did bind | 
3 | Indolicidin | did bind | did bind | 
4 | Buforin I | did not bind | did not bind | 

Reference: US20040224358A1, “Method for discovering one or more peptides adapted for specific binding to a microorganism of interest” (priority 2002, published 2004)
